From PMC2031891, “The cyclic nucleotide gated cation channel AtCNGC10 traffics from the ER via Golgi vesicles to the plasma membrane of Arabidopsis root and leaf cells” (BMC Plant Biology, 2007)

Molecular target: T1, AtCNGC10 (AtCNGC10-GFP) (Arabidopsis thaliana, UniProt Q9LNJ0)
T1 construct: gene CNGC10; full-length cDNA fused to EGFP (pNC10kozG) or to EGFP and FLAG (pTGC10F), transiently expressed in HEK293
T1 sequence (Q9LNJ0 1-711): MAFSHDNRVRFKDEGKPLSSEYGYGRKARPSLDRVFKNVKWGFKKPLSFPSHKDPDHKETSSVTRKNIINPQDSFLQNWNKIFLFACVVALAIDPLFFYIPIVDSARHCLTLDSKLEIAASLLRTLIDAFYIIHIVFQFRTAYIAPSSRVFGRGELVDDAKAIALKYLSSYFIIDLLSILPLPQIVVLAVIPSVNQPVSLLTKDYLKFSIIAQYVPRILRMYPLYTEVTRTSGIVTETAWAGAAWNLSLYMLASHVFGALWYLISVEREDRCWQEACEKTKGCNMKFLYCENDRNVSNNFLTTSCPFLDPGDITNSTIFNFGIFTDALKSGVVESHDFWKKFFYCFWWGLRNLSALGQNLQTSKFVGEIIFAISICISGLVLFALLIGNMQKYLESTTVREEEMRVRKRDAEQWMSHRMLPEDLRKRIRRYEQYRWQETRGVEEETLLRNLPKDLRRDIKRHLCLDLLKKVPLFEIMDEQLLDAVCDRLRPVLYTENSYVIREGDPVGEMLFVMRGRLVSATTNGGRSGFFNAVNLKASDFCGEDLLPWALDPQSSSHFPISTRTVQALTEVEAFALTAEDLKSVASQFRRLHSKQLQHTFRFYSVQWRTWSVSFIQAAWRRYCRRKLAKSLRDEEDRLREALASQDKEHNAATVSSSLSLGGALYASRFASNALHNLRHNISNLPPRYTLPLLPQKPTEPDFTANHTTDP
Experiment: whole-cell patch clamp, HEK293
Type: cell-based
Conditions: 100 uM in bath; 145 mM K+ out / 145 mM N-methyl-D-glucamine in; pH 7.4 bath, 25 C; activator; control was non-transfected cells, no record without the nucleotide described

## CCCC(=O)Nc1nc2c(ncn2[C@@H]2O[C@@H]3COP(=O)(O)O[C@H]3[C@H]2OC(=O)CCC)c(=O)[nH]1 [dibutyryl cGMP]
  whole-cell patch clamp, HEK293: heterologously expressed AtCNGC10 conducted significant inward K^+ currents with the application of dibutyryl cGMP
